In one assay the target is GDP-loaded WT KRAS (Homo sapiens, UniProt P01116). Put plainly: KRAS WT Probe Displacement Assay. Type of assay: binding. The conditions noted are these: WT KRAS 3 nM, biotinylated probe 1 60 nM; read-out: KRAS WT Probe Displacement Assay IC50.
A further assay deals with GDP-loaded KRAS G12D (Homo sapiens, UniProt P01116, G12D). The assay can be described thus: KRAS G12D Probe Displacement Assay. Type of assay: binding. The conditions noted are these: KRAS G12D 0.5 nM, biotinylated probe 2 4 nM; read-out: KRAS G12D Probe Displacement Assay IC50.
Assay [1] concerns pERK1/2 (THR202/TYR204) in AsPC-1 cells. The assay can be described thus: pERK Assay (HTRF) in AsPC-1 cells. Conditions: Homo sapiens, ASPC1, 2 h compound treatment. Type of assay: cell-based.

Sequence of GDP-loaded KRAS G12D (P01116 1-188 isoform P01116-2 G12D): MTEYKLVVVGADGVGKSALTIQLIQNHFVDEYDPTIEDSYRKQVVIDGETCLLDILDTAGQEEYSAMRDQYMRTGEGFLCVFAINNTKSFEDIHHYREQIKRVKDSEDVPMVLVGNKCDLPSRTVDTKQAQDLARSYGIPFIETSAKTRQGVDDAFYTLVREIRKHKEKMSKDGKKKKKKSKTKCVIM
Sequence of GDP-loaded WT KRAS (P01116 1-188 isoform P01116-2): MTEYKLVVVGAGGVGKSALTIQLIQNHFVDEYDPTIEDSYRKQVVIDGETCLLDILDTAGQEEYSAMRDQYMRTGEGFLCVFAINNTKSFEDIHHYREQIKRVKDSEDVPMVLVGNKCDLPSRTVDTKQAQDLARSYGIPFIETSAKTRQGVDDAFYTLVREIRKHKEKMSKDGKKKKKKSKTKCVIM

Turning to `C=C(C)c1cc2c(N3CC4CCC(C3)N4)nc(OC[C@@]34CCCN3C[C@H](F)C4)nc2c(F)c1-c1ccc(F)c2sc(N)nc12` [Example E69, 4-(4-(3,8-diazabicyclo[3.2.1]octan-3-yl)-8-fluoro-2-(((2R,7aS)-2-fluorotetrahydro-1H-pyrrolizin-7a(5H)-yl)methoxy)-6-(prop-1-en-2-yl)quinazolin-7-yl)-7-fluorobenzo[d]thiazol-2-amine], the figures for the IC50 (on GDP-loaded WT KRAS; at GDP-loaded KRAS G12D; in assay [1]) were 72 nM, 0.72 nM and 216 nM, respectively.
Turning to `CN(C)CC1(COc2nc(N3CC4CCC(C3)N4)c3cc(Cl)c(-c4ccc(F)c5sc(N)nc45)c(F)c3n2)CC1` [Example E70, 4-(4-(3,8-diazabicyclo[3.2.1]octan-3-yl)-6-chloro-2-((1-((dimethylamino)methyl)cyclopropyl)methoxy)-8-fluoroquinazolin-7-yl)-7-fluorobenzo[d]thiazol-2-amine], the IC50 worked out at 32 nM at GDP-loaded WT KRAS, 0.35 nM at GDP-loaded KRAS G12D and 927 nM in assay [1].
The like results for `CC(C)c1cc2c(N3CC4CCC(C3)N4)nc(OC[C@@]34CCCN3C[C@H](F)C4)nc2c(F)c1-c1ccc(F)c2sc(N)nc12` [Example E71, 4-(4-(3,8-diazabicyclo[3.2.1]octan-3-yl)-8-fluoro-2-(((2R,7aS)-2-fluorotetrahydro-1H-pyrrolizin-7a(5H)-yl)methoxy)-6-isopropylquinazolin-7-yl)-7-fluorobenzo[d]thiazol-2-amine] were, in that order, 37.8 nM, 0.59 nM and 137 nM.
The like results for `C[C@@H](CN1CCC(F)CC1(C)C)Oc1nc(N2CC3CCC(C2)N3)c2cc(C(F)(F)F)c(-c3ccc(F)c4sc(N)nc34)c(F)c2n1` (stereo partly drawn) [Example E72, 4-(4-(3,8-diazabicyclo[3.2.1]octan-3-yl)-8-fluoro-2-(((2S)-1-(4-fluoro-2,2-dimethylpiperidin-1-yl)propan-2-yl)oxy)-6-(trifluoromethyl)quinazolin-7-yl)-7-fluorobenzo[d]thiazol-2-amine] were, in that order, 120 nM, 3.9 nM and 1080 nM.
Take `Cc1ccc(-c2c(C(F)(F)F)cc3c(N4CC5CCC(C4)N5)nc(OC[C@@]45CCCN4C[C@H](F)C5)nc3c2F)c2nc(N)sc12` [Example E73, 4-(4-(3,8-diazabicyclo[3.2.1]octan-3-yl)-8-fluoro-2-(((2R,7aS)-2-fluorotetrahydro-1H-pyrrolizin-7a(5H)-yl)methoxy)-6-(trifluoromethyl)quinazolin-7-yl)-7-methylbenzo[d]thiazol-2-amine]: the IC50 at GDP-loaded WT KRAS was 15.5 nM; at GDP-loaded KRAS G12D, 0.57 nM; in assay [1], 68 nM.
On to `Nc1nc2c(-c3c(C(F)(F)F)cc4c(N5CC6CC(C5)N6)nc(OC[C@@]56CCCN5C[C@H](F)C6)nc4c3F)ccc(F)c2s1` [Example E74, 4-(4-(3,6-diazabicyclo[3.1.1]heptan-3-yl)-8-fluoro-2-(((2R,7aS)-2-fluorotetrahydro-1H-pyrrolizin-7a(5H)-yl)methoxy)-6-(trifluoromethyl)quinazolin-7-yl)-7-fluorobenzo[d]thiazol-2-amine], for which the IC50 at GDP-loaded WT KRAS is 4.8 nM; at GDP-loaded KRAS G12D it was 0.42 nM; in assay [1], 349 nM.
Turning to `Nc1nc2c(-c3c(Cl)cc4c(N5CC6CCC(C5)N6)nc(OC[C@@]56CCCN5C[C@H](F)C6)nc4c3F)c(F)cc(F)c2s1` [Example E75, 4-(4-(3,8-diazabicyclo[3.2.1]octan-3-yl)-6-chloro-8-fluoro-2-(((2R,7aS)-2-fluorotetrahydro-H-pyrrolizin-7a(5H)-yl)methoxy)quinazolin-7-yl)-5,7-difluorobenzo[d]thiazol-2-amine], the IC50 on GDP-loaded WT KRAS worked out at 1.8 nM; at GDP-loaded KRAS G12D it was 0.23 nM; in assay [1], 40 nM.
On to `Cc1c(-c2ccc(F)c3sc(N)nc23)c(C(F)(F)F)cc2c(N3CC4CCC(C3)N4)nc(OC[C@@]34CCCN3C[C@H](F)C4)nc12` [Example E76, 4-(4-(3,8-diazabicyclo[3.2.1]octan-3-yl)-2-(((2R,7aS)-2-fluorotetrahydro-1H-pyrrolizin-7a(5H)-yl)methoxy)-8-methyl-6-(trifluoromethyl)quinazolin-7-yl)-7-fluorobenzo[d]thiazol-2-amine], for which the IC50 on GDP-loaded WT KRAS was determined as 4.8 nM; on GDP-loaded KRAS G12D, 0.12 nM; in assay [1], 58 nM.
`Cc1cc(N)nc(-c2c(C(F)(F)F)cc3c(N4CC5CCC(C4)N5)nc(OC[C@@]45CCCN4C[C@H](F)C5)nc3c2F)c1C(F)(F)F` [Example E77, 6-(4-(3,8-diazabicyclo[3.2.1]octan-3-yl)-8-fluoro-2-(((2R,7aS)-2-fluorotetrahydro-1H-pyrrolizin-7a(5H)-yl)methoxy)-6-(trifluoromethyl)quinazolin-7-yl)-4-methyl-5-(trifluoromethyl)pyridin-2-amine]: the IC50 was 33 nM on GDP-loaded WT KRAS, 0.52 nM at GDP-loaded KRAS G12D and 122 nM in assay [1].
`Cc1c(F)c(N)nc(-c2c(Cl)cc3c(N4CC5CCC(C4)N5)nc(OC[C@@]45CCCN4C[C@H](F)C5)nc3c2F)c1C(F)(F)F` [Example E78, 6-(4-(3,8-diazabicyclo[3.2.1]octan-3-yl)-6-chloro-8-fluoro-2-(((2R,7aS)-2-fluorotetrahydro-1H-pyrrolizin-7a(5H)-yl)methoxy)quinazolin-7-yl)-3-fluoro-4-methyl-5-(trifluoromethyl)pyridin-2-amine]: the IC50 on GDP-loaded WT KRAS was 101 nM; at GDP-loaded KRAS G12D, 0.99 nM; in assay [1], 159 nM.
Taken in the same sequence, the figures for `Cc1cc(N)nc(-c2c(F)cc3c(N4CC5CCC(C4)N5)nc(OC[C@@]45CCCN4C[C@H](F)C5)nc3c2F)c1C(F)(F)F` [Example E79, 6-(4-(3,8-diazabicyclo[3.2.1]octan-3-yl)-6,8-difluoro-2-(((2R,7aS)-2-fluorotetrahydro-1H-pyrrolizin-7a(5H)-yl)methoxy)quinazolin-7-yl)-4-methyl-5-(trifluoromethyl) pyridin-2-amine] were 178 nM, 1.1 nM and 153 nM.
Turning to `Nc1cc(Cl)c(C(F)(F)F)c(-c2c(Cl)cc3c(N4CC5CCC(C4)N5)nc(OC[C@@]45CCCN4C[C@H](F)C5)nc3c2F)c1` [Example E80, 3-(4-(3,8-diazabicyclo[3.2.1]octan-3-yl)-6-chloro-8-fluoro-2-(((2R,7aS)-2-fluorotetrahydro-1H-pyrrolizin-7a(5H)-yl)methoxy)quinazolin-7-yl)-5-chloro-4-(trifluoromethyl)aniline], the IC50 at GDP-loaded WT KRAS is 46 nM; at GDP-loaded KRAS G12D, 0.66 nM; in assay [1], 307 nM.
As for `Oc1cccc(F)c1-c1c(Cl)cc2c(N3CC4CCC(C3)N4)nc(OC[C@@]34CCCN3C[C@H](F)C4)nc2c1F` [Example E81, 2-(4-(3,8-diazabicyclo[3.2.1]octan-3-yl)-6-chloro-8-fluoro-2-(((2R,7aS)-2-fluorotetrahydro-1H-pyrrolizin-7a(5H)-yl)methoxy)quinazolin-7-yl)-3-fluorophenol], the IC50 at GDP-loaded WT KRAS stood at 990 nM; at GDP-loaded KRAS G12D, 6.9 nM; in assay [1] it was 2380 nM.
For `Nc1nc2c(-c3c(C(F)(F)F)cc4c(N5CC6CCC(C5)N6)nc(OC[C@@]56CCCN5C[C@H](F)C6)nc4c3Cl)ccc(Cl)c2s1` [Example E82, 4-(4-(3,8-diazabicyclo[3.2.1]octan-3-yl)-8-chloro-2-(((2R,7aS)-2-fluorotetrahydro-1H-pyrrolizin-7a(5H)-yl)methoxy)-6-(trifluoromethyl)quinazolin-7-yl)-7-chlorobenzo[d]thiazol-2-amine], the IC50 turned out to be 5 nM on GDP-loaded WT KRAS, 0.3 nM at GDP-loaded KRAS G12D and 64 nM in assay [1].
`Nc1nc2c(-c3c(C(F)(F)F)cc4c(N5CC6CCC(C5)N6)nc(OC[C@@]56CCCN5C[C@H](F)C6)nc4c3F)ccc(Cl)c2s1` [Example E83, 4-(4-(3,8-diazabicyclo[3.2.1]octan-3-yl)-8-fluoro-2-(((2R,7aS)-2-fluorotetrahydro-1H-pyrrolizin-7a(5H)-yl)methoxy)-6-(trifluoromethyl)quinazolin-7-yl)-7-chlorobenzo[d]thiazol-2-amine]: the IC50 at GDP-loaded WT KRAS is 3.8 nM; on GDP-loaded KRAS G12D it was 0.13 nM; in assay [1], 61 nM.
As to `Nc1nc2c(-c3c(C(F)(F)F)cc4c(N5CC6CCC(C5)N6)nc(OC[C@@]56CCCN5C[C@H](F)C6)nc4c3F)c(F)cc(F)c2s1` [Example E84, 4-(4-(3,8-diazabicyclo[3.2.1]octan-3-yl)-8-fluoro-2-(((2R,7aS)-2-fluorotetrahydro-1H-pyrrolizin-7a(5H)-yl)methoxy)-6-(trifluoromethyl)quinazolin-7-yl)-5,7-difluorobenzo[d]thiazol-2-amine], the IC50 on GDP-loaded WT KRAS is 2.4 nM; on GDP-loaded KRAS G12D, 0.36 nM; in assay [1], 28 nM.
Taken in the same sequence, the figures for `Nc1nc2c(-c3c(C(F)(F)F)cc4c(N5CC6CCC(C5)N6)nc(OC[C@@]56CCCN5C[C@H](F)C6)nc4c3F)cc(F)c(F)c2s1` [Example E85, 4-(4-(3,8-diazabicyclo[3.2.1]octan-3-yl)-8-fluoro-2-(((2R,7aS)-2-fluorotetrahydro-1H-pyrrolizin-7a(5H)-yl)methoxy)-6-(trifluoromethyl)quinazolin-7-yl)-6,7-difluorobenzo[d]thiazol-2-amine] were 5.6 nM, 0.21 nM and 124 nM.
The like results for `CC(F)CNC1C[C@H]2CC[C@@H]1N2c1nc(OC[C@@]23CCCN2C[C@H](F)C3)nc2c(F)c(-c3ccc(F)c4sc(N)nc34)c(C(F)(F)F)cc12` (stereo partly drawn) [Example E86, 7-fluoro-4-(8-fluoro-4-((1S,4R)-2-((2-fluoropropyl)amino)-7-azabicyclo[2.2.1]heptan-7-yl)-2-(((2R,7aS)-2-fluorotetrahydro-1H-pyrrolizin-7a(5H)-yl)methoxy)-6-(trifluoromethyl)quinazolin-7-yl)benzo[d]thiazol-2-amine] were, in that order, 16 nM, 1.4 nM and 320 nM.

These data come from patent US20240140957A1, “BRIDGED COMPOUNDS AS KRAS G12D INHIBITOR AND DEGRADER AND THE USE THEREOF” (BeiGene Switzerland GmbH, priority 2021, published 2024).
